A word on the Kd: it is the constant that tells how readily two partners part at equilibrium. Read a low Kd as higher affinity.

The values below come from PMC9006954, “Computer-Based Immunoinformatic Analysis to Predict Candidate T-Cell Epitopes for SARS-CoV-2 Vaccine Design” (Frontiers in Immunology, 2022).

This experiment deals with T1, HLA-A*11:01 protein (Homo sapiens, UniProt P04439, A114D/D185E/E176A/F33Y/L180Q/S129P/T187R).
T1 construct: biotin (biotinylated)
The experiment can be described thus: Bio-Layer Interferometry (BLI) affinity test, Octet R8. As to conditions: Octet R8, SSA sensors, peptides 100-3.125 µM in PBST (PBS+0.02%Tween20+1% DMSO), balance, binding, dissociation 60 s each.

Where no end group is shown, it is not given here.

On to GVSPTKLNDL [reference compound], for which the Kd was 656 µM.

In turn, FSTFKCYGV [reference compound] returned a dissociation constant Kd of 29.1 µM.

In turn, KCYGVSPTK [reference compound] displayed a Kd of 23.5 µM.

On to SQCVNLTTR [reference compound], for which the KD entry is recorded as “Non-binding”.
